Results as given in patent publication US20160106104A1, “SILICONE-BASED ANTIMICROBIAL COMPOSITION” (UNIVERSITE DU MAINE, priority 2013, published 2016).

Key:
Type in all cases: cell-based
[1] = tested on: Penicillium chrysogenum HEM 20859; assay: Tests on a fungus according to ISO 16869 (modified); parameters: key: mark 0 is ascribed when no growth is observed; mark 1 is ascribed when beginning of growth is observed; mark 2 is ascribed when obvious growth is observed; settings: silicone film with 5% antimicrobial agent, 25° C., naked eye mark
Procedure: The antifungal activity of the silicone compositions of the invention was tested on the fungus line Penicillium chrysogenum HEM 20859, according to the procedure of the ISO 16869 standard (second edition, 2008).
(§1) The silicone films prepared in Example 5A were used.
Thus, each silicone film sample was placed in a Petri dish between a lower layer of nutrient salt agar (20 ml) and an upper layer of Peptone Dextrose agar in which fungus spores were dispersed. The remainder of the procedure of the aforementioned standard was followed.
The culture media were incubated at 25° C. for at least 48 h, and for up to 7 days.
The results are evaluated with the naked eye: • mark 0 is ascribed when no growth is observed, • mark 1 is ascribed when beginning of growth is observed, and • mark 2 is ascribed when obvious growth is observed.

[2] = tested on: Candida albicans IHEM 14796; assay: Tests on yeast according to ISO 22196; settings: incubation 24 h
Procedure: The antibacterial activity of the silicone compositions of the invention was tested on the yeast line Candida albicans IHEM 14796, according to the procedure of the ISO 22196 standard (second edition, 2011).
as §1
The procedure followed is identical with that of Example 5A.

[3] = tested on: Enterococcus faecalis ATCC 29212; assay: Antibacterial activity of silicone films, ISO 22196; settings: incubation 24 h at 37° C., detection limit log10(N)=1.4
Procedure: (§2) The antibacterial activity of the silicone compositions of the invention was tested on 6 lines of bacteria, according to the procedure for the ISO 22196 standard (second edition, 2011).
(§3) The lines of tested bacteria are: Klebsiella pneumoniae DSM 16609, Staphylococcus aureus ATCC 25923, Enterococcus faecalis ATCC 29212, Escherichia coli ATCC 8739, Acinetobacter baumannii CIP 70.34 and Enterobacter cloacae DSM 30054.
(§4) Silicone films were prepared according to Examples 2 and 3, comprising 0%, 2% or 5% of antimicrobial agent PHMG-DBS, OMIM-BF4 or DMIM-BF4 (7 types of silicone films were therefore prepared).
(§5) Square pieces of silicone films with dimensions 25 mm×25 mm were cut out, as well as squares of polypropylene of dimension 20 mm×20 mm. The latter were passed in the autoclave at 115° C. for 20 minutes.
(§6) The bacteria were cultivated overnight at 37° C. in an agar culture medium. Suspensions of bacteria were then prepared in a nutrient broth culture medium with a bacterial concentration of 6.10^5 CFU/ml.
(§7) Each silicone square (not sterilized) was placed on a lid of a Petri dish with a diameter of 55 mm, which itself was placed in a Petri dish with a diameter of 94 mm. 100 μl of bacterial suspension were deposited on each silicone square and spread out by means of a polypropylene square. 10 ml of sterile water were added in the bottom of the Petri dish with a diameter of 94 mm in order to ensure high relative humidity during incubation at 37° C. for 24 hours. For each silicone film type, three specimens were made.
(§8) After incubation, each silicone film was placed in a new Petri dish and washed with 10 ml of […] (SCDLP, according to the standard procedure of the ISO standard) for recovering the bacteria. After 5 washes, the SCDLP suspension was diluted down to 10^−6, and 1 ml of obtained solution was placed on a gelose plate PCA (duplicated). Each plate was incubated at 37° C. for 24 hours. The number of colonies on each Petri dish was then counted.
(§9) The viability of the bacteria depending on the obtained results was calculated by means of the following formula: […]
(§10) wherein: • N refers to the number of viable bacteria observed per cm^2 of each tested sample, • C refers to the average count of colonies on each gelose plate PCA, and • D refers to the dilution factor used for the counting.
(§11) The results of the viability measurements of the bacteria, expressed in log10(N), are gathered in Table 1, the detection limit having been set to a number of recovered bacteria equal to 10 (i.e. log10(N)=1.4).

[4] = tested on: Acinetobacter baumannii CIP 70.34; assay: as above; settings: incubation 24 h at 37° C., detection limit log10(N)=1.4
Procedure: as §2, §3, §4, §5, §6, §7, §8, §9, §10, §11

[5] = tested on: Staphylococcus aureus ATCC 25923; assay: as above; settings: incubation 24 h at 37° C., detection limit log10(N)=1.4
Procedure: as §2, §3, §4, §5, §6, §7, §8, §9, §10, §11

[6] = tested on: Escherichia coli ATCC 8739; assay: as above; settings: incubation 24 h at 37° C., detection limit log10(N)=1.4
Procedure: as §2, §3, §4, §5, §6, §7, §8, §9, §10, §11

[7] = tested on: Enterobacter cloacae DSM 30054; assay: as above; settings: incubation 24 h at 37° C., detection limit log10(N)=1.4
Procedure: as §2, §3, §4, §5, §6, §7, §8, §9, §10, §11

[8] = tested on: Klebsiella pneumoniae DSM 16609; assay: as above; settings: incubation 24 h at 37° C., detection limit log10(N)=1.4
Procedure: as §2, §3, §4, §5, §6, §7, §8, §9, §10, §11

[9] = silicone film with 2% antimicrobial agent
[10] = silicone film with 5% antimicrobial agent

Row | SMILES | Observation of the growth of fungi Penicillium chrysogenum, Incubation for 48 h ([1]; 48 h) | Observation of the growth of fungi Penicillium chrysogenum, Incubation for 7 days ([1]; 7 days) | Viability of yeasts (log10(N)) Candida albicans [2, 9] | Viability of yeasts (log10(N)) Candida albicans [2, 10] | Viability of bacteria (log10(N)) Enterococcus faecalis [3, 9] | Viability of bacteria (log10(N)) Enterococcus faecalis [3, 10] | Viability of bacteria (log10(N)) Acinetobacter baumannii [4, 9] | Viability of bacteria (log10(N)) Acinetobacter baumannii [4, 10] | Viability of bacteria (log10(N)) Staphylococcus aureus [5, 9] | Viability of bacteria (log10(N)) Staphylococcus aureus [5, 10] | Viability of bacteria (log10(N)) Escherichia coli [6, 9] | Viability of bacteria (log10(N)) Escherichia coli [6, 10] | Viability of bacteria (log10(N)) Enterobacter cloacae [7, 9] | Viability of bacteria (log10(N)) Enterobacter cloacae [7, 10] | Viability of bacteria (log10(N)) Klebsiella pneumoniae [8, 9] | Viability of bacteria (log10(N)) Klebsiella pneumoniae [8, 10]
1 | CCCCCCCCCCCCn1cc[n+](C)c1.F[B-](F)(F)F [DMIM-BF4, 1-dodecyl-3-methylimidazolium tetrafluoroborate] | 0 | 0 | 1.4 log10(N) | 1.4 log10(N) | 1.4 log10(N) | 1.4 log10(N) | 1.6 log10(N) | 1.4 log10(N) | 1.4 log10(N) | 1.4 log10(N) | 1.4 log10(N) | 1.4 log10(N) | 1.4 log10(N) | 1.4 log10(N) | 1.4 log10(N) | 1.4 log10(N)
2 | CCCCCCCCn1cc[n+](C)c1.F[B-](F)(F)F [OMIM-BF4, 1-octyl-3-methylimidazolium tetrafluoroborate] | – | – | 6.1 log10(N) | 3.0 log10(N) | 3.6 log10(N) | 1.4 log10(N) | 5.8 log10(N) | 1.4 log10(N) | 1.6 log10(N) | 1.4 log10(N) | 1.4 log10(N) | 1.4 log10(N) | 3.6 log10(N) | 1.4 log10(N) | 3.3 log10(N) | 4.6 log10(N)
